Results taken from patent US8076142B2, “Rooted plant assay system” (BASF Plant Sciences GmbH, priority 2006, dated 2011).

Test system: soybean explants
Test: Auxin effect on transformation efficiency in soybean explants (disarmed A. rhizogenes, root induction and selection medium)
Type: cell-based
Details: for transformation efficiency compared to control with no auxin: cotyledons from William 82 as explants
Procedure: Clean soybean seeds from soybean cultivar were sterilized in a chamber with chlorine gas produced by adding 3.5 ml 12N HCl drop wise into 100 ml bleach. All operations were conducted in a fume hood. After 24 hours in the chamber, seeds were removed and used immediately or stored at room temperature until use. Discolored seeds or cracked seeds were removed. To imbibe seeds, warm GM medium was poured around seeds until the seeds were entirely covered by the medium. Seedlings were grown in the light for 5-7 days until the epicotyl was extended beyond the cotyledons. Seedlings can be stored at 4° C. overnight before being used in transformation. The Germination Medium (GM) comprises: 1×B5 salts and vitamins, 1×MS iron stock, 2% sucrose, and 0.8% Noble agar at pH 5.8. As an alternative, soybean seeds can be germinated in 1% agar (50 ml) in Petri dishes for 7 days before Agrobacterium inoculation.
Three days before inoculation, a disarmed Agrobacterium culture, for example, the disarmed A. rhizogenes strain K599 liquid culture, was placed in 5 ml LB+Kan50 (containing 50 ug/ml Kanamycin) media in a 28° C. shaker (225 rpm) overnight. The next day, 1 ml of the culture was taken and spread onto an LB+Kan50 agar plate. The plates were incubated in a 28° C. incubator for two days. At the end of the two-day period the plates were covered with thick colonies. One plate was prepared for every 50 explants to be inoculated.
Soybean seedlings had elongated hypocotyls approximately 3 to 5 cm in length with visible epicotyls. The explants were then prepared by removing the epicotyls and part of the hypocotyls. The explant contained one or two cotyledons, an axillary meristem and the hypocotyl about 0.5 cm to about 3 cm in length. The seed coat was removed to facilitate cotyledon development. The cut end of the hypocotyl was the target for transformation/infection.
Alternatively, cotyledons containing the proximal end from its connection with the seedlings were used as another type of explant for transformation. The cut end was the target for Agrobacterium inoculation.
After the explants were cut off the seedlings, the cut end was immediately dipped onto the disarmed thick A. rhizogenes colonies prepared above so that the colonies were visible on the cut end. Alternatively, the explants can be immersed in the disarmed A. rhizogenes liquid culture for 30 minutes. The explants were then placed onto 1% agar in Petri dishes for co-cultivation. Approximately 10 explants were placed in one dish. The dishes were sealed with Saran wrap and co-cultured at 25-27° C. under light for 6-8 days.
After the transformation and co-cultivation step, soybean explants were transferred to rooting induction medium with a selection agent, for example, S-B5-605 or S-B5-607 for Bar gene selection (De Block et al., EMBO J. 6:2513-2518, 1987), or S-B5-708 for an AHAS mutant gene (Sathasivan et al., Plant Phys. 97:1044-50, 1991) selection, in Petri dishes. The cut end was inserted into the medium so that the callus developed from the cut end in the future was just below the medium surface. Six to nine explants were placed in each Petri dish. Cultures were maintained in the same condition as in the co-cultivation step.
The S-B5-605 medium comprises: 0.5×B5 salts, 3 mM MES, 2% sucrose, 1×B5 vitamins, 400 μg/ml Timentin, 0.8% Noble agar, 1 mg/1 IBA and 3 μg/ml Glufosinate Ammonion (selection agent for Bar gene) at pH 5.8. The S-MS-607 medium comprises: 0.2×MS salts and B5 vitamins, 2% sucrose, 400 mg/l Timentin, and 3 mg/L Glufosinate Ammonium at pH5.8. The S-B5-708 medium comprises: 0.5×B5 salts, 3 mM MES, 2% sucrose, 1×B5 vitamins, 400 μg/ml Timentin, 0.8% Noble agar, and 1 μM Imazapyr (selection agent for AHAS gene) (BASF Corporation, Florham Park, N.J.) at pH5.8.
Two to three weeks after the selection and root induction, transformed roots were formed on the cut ends of the explants. […]

Row | SMILES | transgenic roots obtained from hypocotyl explants (control, 0-1 mg/l IBA in the rooting induction and selection medium) | transformation efficiency compared to control with no auxin (3 mg/l IBA) | transformation efficiency (high concentration of IBA, 3 to 5 mg/l, in the medium) | transformation efficiency (soybean hypocotyl and cotyledon explants, medium with 1 mg/l IBA compared to no auxin) | transformation efficiency (NAA 1 mg/l in the medium) | transformation efficiency compared to control with no auxin (1 mg/l NAA) | transgenic roots obtained from hypocotyl explants (infected explants cultured and selected in medium containing 1 mg/l NAA)
1 | O=C(O)CCCc1c[nH]c2ccccc12 [IBA, indole-3-butyric acid] | 1-5 | doubled | dramatically increased | similar |  |  | 
2 | O=C(O)Cc1cccc2ccccc12 [NAA, napthalene acetic acid] |  |  |  |  | dramatically increased | doubled | more than 20
